Source: patent EP4471048A1, “PEPTIDE INHIBITORS OF INTERLEUKIN-23 RECEPTOR” (Zealand Pharma A/S, priority 2023, dated 2024)
Read-outs that look alike come from different tables or passages of the source. *1 amine or outer side, *2 acyl side, *3 side chain or, on linkers, in order; H or OH if unused. Where a SMILES comes first, the peptide text is derived from it. Bridges are numbered along the chain shown (N, C = ends). [ ]: non-standard residue; d: D form. 2Nal = N[C@@H](Cc1ccc2ccccc2c1)C(=O)O; AEF = NCCOc1ccc(C[C@H](N)C(=O)O)cc1; 3Pal = N[C@@H](Cc1cccnc1)C(=O)O; αMeL = CC(C)C[C@](C)(N)C(=O)O; CH2COCH2 = O=C(C[*:1])C[*:2]; 3Amb = NCc1cccc(C(=O)O)c1

How the values were obtained:
human IL-23R = target: T1, human IL-23R (Homo sapiens, UniProt Q5VWK5); experiment: biochemical
T1 sequence (Q5VWK5 22-629): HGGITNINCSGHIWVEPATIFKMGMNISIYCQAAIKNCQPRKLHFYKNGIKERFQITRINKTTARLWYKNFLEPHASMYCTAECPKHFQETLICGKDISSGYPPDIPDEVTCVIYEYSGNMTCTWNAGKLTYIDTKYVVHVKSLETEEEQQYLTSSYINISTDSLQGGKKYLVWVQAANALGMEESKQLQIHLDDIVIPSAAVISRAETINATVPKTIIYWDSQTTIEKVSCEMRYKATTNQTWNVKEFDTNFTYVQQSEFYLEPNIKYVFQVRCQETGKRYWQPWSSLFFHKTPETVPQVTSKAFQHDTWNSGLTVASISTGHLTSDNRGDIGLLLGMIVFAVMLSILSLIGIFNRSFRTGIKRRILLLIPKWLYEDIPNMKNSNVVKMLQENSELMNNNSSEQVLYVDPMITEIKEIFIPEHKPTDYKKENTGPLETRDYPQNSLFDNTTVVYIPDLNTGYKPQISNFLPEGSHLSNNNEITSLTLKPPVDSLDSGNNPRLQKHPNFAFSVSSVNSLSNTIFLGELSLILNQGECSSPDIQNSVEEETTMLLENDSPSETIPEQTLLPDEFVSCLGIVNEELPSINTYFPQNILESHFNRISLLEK
Method in brief: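 BRET displacement of a TAMRA-labelled reference compound from N-terminal Nanoluc-IL-23R fusion protein in membranes from stably transfected HEK293 cells. Incubation 2 h at room temperature, then Nanoluc substrate was added and the TAMRA/Nanoluc ratio read. IC50 and maximal displacement came from 4-parameter logistic fits.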

[1] = target: IL-23 mediated signalling (Homo sapiens, UniProt Q5VWK5); experiment: Functional inhibition of IL-23 mediated STAT3 signalling (phospho-STAT3 MSD) in DB cells; assay type: cell-based; settings: for Emax: read-out: hIL-23 (pSTAT3) antagonist % inhibition
Method in brief: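 DB cells preincubated with inhibitor 15 min at 37 °C, then stimulated 90 min with EC80 human IL-23; lysate phospho-STAT3 measured by MSD electrochemiluminescence. Signal normalized to IL-23-alone and buffer controls; IC50 and maximal % inhibition from 4-parameter logistic fit.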

[2] = Peptide stability in simulated intestinal fluid (SIF); assay type: in vitro ADME; settings: 37 °C, porcine pancreatin; for SIF (% remaining 4 h) / SIF (% remaining 1 h): 10 µM; for SIF (% remaining 4 h) / remaining at 4 h, 10 µM: pH 6.8, 4 h; for remaining at 1 h, 10 µM / remaining at 4 h, 10 µM: pig; for remaining at 1 h, 10 µM / SIF (% remaining 1 h): pH 6.8, 1 h
Method in brief: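 Peptides were incubated at 37 °C with gentle shaking in pH 6.8 potassium phosphate SIF containing porcine pancreatin (10 g/L). Supernatants were analysed by LC-HRMS. Percent remaining at each timepoint, including 4 h, was calculated relative to time zero from absolute peak areas.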

[3] = Peptide stability in simulated gastric fluid (SGF); assay type: in vitro ADME; settings: 37 °C, porcine pepsin; for remaining at 1 h, 10 µM / remaining at 4 h, 10 µM: pig, simulated gastric fluid (SGF) with porcine pepsin (3.2 g/L), pH 1.2, 10 µM; for remaining at 1 h, 10 µM / SGF (% remaining 1 h): pH 1.2, 1 h; for remaining at 1 h, 10 µM: read-out: SGF (% remaining 1 h); for remaining at 4 h, 10 µM / SGF (% remaining 4 h): pH 1.2, 4 h; for remaining at 4 h, 10 µM: read-out: SGF (% remaining 4 h); for SGF (% remaining 1 h) / SGF (% remaining 4 h): 10 µM
Method in brief: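 Peptide incubated at 37 °C with gentle shaking in SGF (NaCl, pH 1.2). Samples centrifuged, diluted and analysed by LC-HRMS; percent remaining at each timepoint from absolute peak areas relative to time zero, with 4 h as the reference point.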

[4] = SAR tables 2-1 to 2-7, DB cells, hIL-23 at EC80, read-out: IC50 (pSTAT3)
[5] = Table 3-2, maximal inhibitory response, DB cells, hIL-23 at EC80
[6] = SAR tables, % peptide remaining, read-out: SIF (% after 4 h)
[7] = Table 3-2, DB cells, hIL-23 at EC80, read-out: hIL-23 (pSTAT3) antagonist IC50
[8] = read-out: SIF (% remaining 4 h)

Structure (SMILES)	% displacement (hIL-23R NIuc) (human IL-23R) [%]	IC50 (human IL-23R) [nM]	IC50 [1, 4] [nM]	Emax [1, 5] [%]	SIF (% remaining 4 h) [2] [%]	remaining at 1 h, 10 µM [2] [%]	remaining at 4 h, 10 µM [2, 6] [%]	remaining at 1 h, 10 µM [3] [%]	remaining at 4 h, 10 µM [3] [%]	Ki (human IL-23R) [nM]	IC50 [1] [nM]	Emax ([1]; DB) [%]	SIF (% remaining 1 h) [2] [%]	SGF (% remaining 1 h) [3] [%]	SGF (% remaining 4 h) [3] [%]	IC50 [1, 7] [nM]	remaining at 4 h, 10 µM [2, 8] [%]
CNC(=O)[C@H](Cc1cccnc1)NC(=O)[C@H](CCN)NC(=O)[C@@H]1CCC(=O)NCCCC[C@@H]2NC(=O)CC[C@H](NC(=O)[C@H](CCC(N)=O)NC(=O)[C@H](Cc3c[nH]c4ccccc34)NC(=O)CCNC2=O)C(=O)N[C@@H](Cc2ccc(OCCN)cc2)C(=O)N[C@@H](Cc2ccc3ccccc3c2)C(=O)N[C@@](C)(CC(C)C)C(=O)N1 [Compound 45, K(1c)(6c)^†[3-Aminopropanoyl]WQE(6c)[Y(2-aminoethoxy)][2-Nal][2-Me-Leu]E(1c)[Dab][3-(3-Pyridyl)-Ala]-[NHMe]]	100	0.022	0.058	100	87	90	87	98	103	–	–	–	–	–	–	–	–
CC(C)C[C@@H]1NC(=O)[C@H](Cc2c[nH]c3ccccc23)NC(=O)[C@H](Cc2c[nH]c3ccccc23)NC(=O)[C@@H]2CSCC(=O)CSC[C@H](NC(=O)[C@H]([C@@H](C)O)NC(=O)[C@@H](NC(=O)CN)CSCC(=O)CSC[C@@H](C(=O)N[C@@H](CO)C(N)=O)NC1=O)C(=O)N[C@@H](Cc1c[nH]c3ccccc13)C(=O)N[C@@H](CCC(=O)O)C(=O)N2 (single isomer, unassigned) [I1 (isomer 3), H-GC(1a)TC(2a)WEC(2a)WWLC(1a)S-[NH2], reference compound]	–	130	–	–	0	–	–	–	–	104	> 1000	83	0	92	94	–	–
CC(=O)N[C@@H](CC(=O)O)C(=O)N[C@H]1CCC(=O)NCCCC[C@@H](C(=O)N[C@@H](CCCNC(=N)N)C(N)=O)NC(=O)[C@H](CC(C)C)NC(=O)[C@H](Cc2ccc3ccccc3c2)NC(=O)[C@H](Cc2c[nH]c3ccccc23)NC(=O)[C@@H]2CSCC(=O)CSC[C@H](NC(=O)[C@H](CO)NC1=O)C(=O)N[C@@H](Cc1c[nH]c3ccccc13)C(=O)N[C@@H](CCC(N)=O)C(=O)N2 [Ref 17, [Ac]-DE(1c)SC(2a)WQC(2a)W[2-Nal]LK(1c)R-[NH2], reference compound]	–	87	–	–	–	0	–	0	0	70.7	–	–	–	–	–	370	0
CSCC[C@H](NC(=O)[C@@H]1CSCC(=O)CSC[C@H](NC(=O)[C@@H](N)CCC(=O)O)C(=O)N[C@@H](Cc2c[nH]c3ccccc23)C(=O)N[C@@H](CC(C)C)C(=O)N[C@H]2CSCC(=O)CSC[C@H](NC(=O)[C@H](CC(N)=O)NC(=O)[C@H](CCCNC(=N)N)NC(=O)[C@H](Cc3ccc(O)cc3)NC(=O)[C@H](Cc3ccc(O)cc3)NC2=O)C(=O)N[C@@H](CC(N)=O)C(=O)N1)C(N)=O (single isomer, unassigned) [I4 (isomer 3), H-EC(4a)WLC(5a)YYRNC(5a)NC(4a)M-[NH2], reference compound]	–	> 1000	–	23	0	–	–	–	–	> 1000	–	–	0	99	99	> 1000	–
CC(C)C[C@@H]1NC(=O)[C@H](Cc2ccc3ccccc3c2)NC(=O)[C@H](Cc2c[nH]c3ccccc23)NC(=O)[C@@H]2CSCC(=O)CSC[C@H](NC(=O)[C@H](CO)NC(=O)c3cccc(c3)CNC(=O)CC[C@@H](C(=O)N[C@@H](CCCNC(=N)N)C(N)=O)NC1=O)C(=O)N[C@@H](Cc1c[nH]c3ccccc13)C(=O)N[C@@H](CCC(N)=O)C(=O)N2 [Ref 37, [(3-Aminomethyl)benzoyl](1c)*SC(2a)WQC(2a)W[2-Nal]LE(1c)R-[NH2], reference compound] ([3Amb]SCWQCW[2Nal]LER-NH2; linker 3-6 via CH2COCH2; lactam N-10)	103	12	–	89	–	0	–	2	1	9.87	–	–	–	–	–	45	0
CC(C)C[C@]1(C)NC(=O)[C@H](Cc2ccc3ccccc3c2)NC(=O)[C@H](Cc2ccc(OCCN)cc2)NC(=O)[C@@H]2CSCC(=O)CSC[C@H](NC(=O)[C@H](CO)NC(=O)c3cccc(c3)CNC(=O)CC[C@@H](C(=O)N[C@H](CCCNC(=N)N)C(N)=O)NC1=O)C(=O)N[C@@H](Cc1c[nH]c3ccccc13)C(=O)N[C@@H](CCC(N)=O)C(=O)N2 [Ref 41, [(3-Aminomethyl)benzoyl](1c)*SC(2a)WQC(2a)[Y(2-aminoethoxy)][2-Nal][2-Me-Leu]E(1c)[{d}R]-[NH2], reference compound] ([3Amb]SCWQC[AEF][2Nal][αMeL]E[dR]-NH2; linker 3-6 via CH2COCH2; lactam N-10)	110	2.8	–	99	–	83	–	93	87	2.31	–	–	–	–	–	29	79
CNC(=O)[C@H](Cc1cccnc1)NC(=O)[C@H](CCN)NC(=O)[C@@H]1CCC(=O)NCCCC[C@@H]2NC(=O)CC[C@H](NC(=O)[C@H](CCC(N)=O)NC(=O)[C@H](Cc3c[nH]c4ccccc34)NC(=O)CNC2=O)C(=O)N[C@@H](Cc2ccc(OCCN)cc2)C(=O)N[C@@H](Cc2ccc3ccccc3c2)C(=O)N[C@@](C)(CC(C)C)C(=O)N1 [Compound 44, K(1c)(6c)^†GWQE(6c)[Y(2-aminoethoxy)][2-Nal][2-Me-Leu]E(1c)[Dab][3-(3-Pyridyl)-Ala]-[NHMe]]	100	4	15	100	5	77	5	100	101	–	–	–	–	–	–	–	–
CC(C)C[C@]1(C)NC(=O)[C@H](Cc2ccc3ccccc3c2)NC(=O)[C@H](Cc2ccc(OCCN)cc2)NC(=O)[C@@H]2CSCC(=O)CSC[C@H](NC(=O)[C@H](CO)NC(=O)c3cccc(c3)CNC(=O)CC[C@@H](C(=O)N[C@@H](CCCNC(=N)N)C(=O)N[C@@H](Cc3cccnc3)C(N)=O)NC1=O)C(=O)N[C@@H](Cc1c[nH]c3ccccc13)C(=O)N[C@@H](CCC(N)=O)C(=O)N2 [Ref 78, [(3-Aminomethyl)benzoyl](1c)*SC(2a)WQC(2a)[Y(2-aminoethoxy)][2-Nal][2-Me-Leu]E(1c)R[3-(3-Pyridyl)-Ala]-[NH2], reference compound] ([3Amb]SCWQC[AEF][2Nal][αMeL]ER[3Pal]-NH2; linker 3-6 via CH2COCH2; lactam N-10)	100	0.025	–	100	–	5	–	–	–	0.0205	–	–	–	–	–	0.13	0
